≈ marks a conversion by molar mass, not a printed value.
Tests used:
[1] = tested on: cancer of the mouse colon (colon 26); assay: anti-cancer action against grafted mouse colon cancer, prolongation of life; type: in vivo, BALB/c mouse
Source text: The anti-cancer action of the compound of the present invention against the cancer of the mouse colon (colon 26) was examined. A cancer debris of mouse colon having an area of 2 mm³ was grafted into a subcutaneous portion of the left body side of a 6 week-old male BALB/c mouse, and the compound of the present invention was intraperitoneally administered to the mouse in various concentrations every day from the next day of the graft once a day for 9 days. The general conditions of the mouse were observed every day after the initiation of the administration. The percentage prolongation of life (T/C) of the mouse with respect to the compound of the present invention was determined from the ratio of the average survival time on the groups of administration of the compound of the present invention relative to that on the control group.

[2] = tested on: bovine adrenal capillary endothelial cells; assay: growth-inhibitory effect on endothelial cells, Coulter counter; type: cell-based; conditions: Bos taurus, Endothelial cell, 72 h, three days after the addition
Description: The growth-inhibitory effect of the compound of the present invention on endothelial cells was examined. A 96-well plate was inoculated with bovine adrenal capillary endothelial cells at a ratio of 1 x 10⁴ cells per well. One day after the inoculation, the compound of the present invention was added thereto at various concentrations. Cells in each well were counted with a Coulter counter three days after the addition to thereby evaluate the growth-inhibitory effect of the test compound on the capillary endothelial cells. […] Thus the IC₅₀ of the compound of the present invention on the endothelial cells was 0.0003 µg/ml, showing a strong growth-inhibitory effect.

Rhizopus hangchao = assay: antifungal spectrum (minimum inhibitory concentration on agar); type: cell-based; conditions: Czapek Dox solution agar
Source text: (§1) The antifungal spectrum of the compound of the present invention was examined.

Candida albicans = assay: as above; type: cell-based; conditions: Czapek Dox solution agar
Source text: as §1

Botrytis cinerea = assay: as above; type: cell-based; conditions: potato sucrose agar medium was used
Source text: as §1

Penicillium chrysogenum = assay: as above; type: cell-based; conditions: Czapek Dox solution agar
Source text: as §1

[3] = tested on: Sporobolomyces salmonicolor; assay: as above; type: cell-based; conditions: Czapek Dox solution agar
Source text: as §1

Saccharomyces cerevisiae = assay: as above; type: cell-based; conditions: Czapek Dox solution agar
Source text: as §1

Mucor javanicus = assay: as above; type: cell-based; conditions: Czapek Dox solution agar
Source text: as §1

Torula herbarum = assay: as above; type: cell-based; conditions: Czapek Dox solution agar
Source text: as §1

Aspergillus oryzae = assay: as above; type: cell-based; conditions: Czapek Dox solution agar
Source text: as §1

Glomerella cingulata = assay: as above; type: cell-based; conditions: Colletotrichum gloeosporioides; Czapek Dox solution agar
Source text: as §1

Fusarium roseum f. sp. = assay: as above; type: cell-based; conditions: Fusarium sambucinum; Czapek Dox solution agar
Source text: as §1

Aspergillus niger = assay: as above; type: cell-based; conditions: Czapek Dox solution agar
Source text: as §1

[4] = tested on: human pulmonary cancer cells (PC-3); assay: growth-inhibitory effect on human pulmonary cancer cells, dye exclusion method; type: cell-based; conditions: 72 h
Description: The growth-inhibitory effects of the compound of the present invention on mouse pulmonary cancer cells (LL) and human plumonary cancer cells (PC-3) were examined.
A 96-well plate was inoculated with mouse pulmonary cancer cells at a ratio of 8.0 x 10² cells per well, while another 96-well plate was inoculated with human pulmonary cancer cells at a ratio of 2.5 x 10³ per well. These cells were incubated in an incubator at 37°C under 5 % CO₂ for 24 hours. Then the compound of the present invention was added thereto at various concentrations. Cells in each well were counted by the dye exclusion method three days after the addition to thereby evaluate the growth-inhibitory effect of the test compound on the mouse pulmonary cancer cells (LL) and that on the human pulmonary cancer cells (PC-3).

HeLa S₃ cells = assay: growth-inhibitory effect on HeLa S3 culture cells, dye exclusion method; type: cell-based; conditions: Homo sapiens, 72 h, three days after the addition
Description: The growth-inhibitory effect of the compound of the present invention on HeLa S₃ culture cells was examined. A 96-well plate was inoculated with HeLa S₃ cells at a ratio of 1.5 x 10³ cells/well and incubated in an incubator at 37°C under 5% CO2 for 24 hours. One day after the inoculation, the compound of the present invention was added to the culture medium at various concentrations. Three days after the addition, cells in each well were counted by the dye exclusion method to thereby evaluate the growth-inhibitory effect of the compound of the present invention at various concentrations on HeLa S₃ cells.

CCC1C=CC=CCC(C)C(O)C(C)(O)C(=O)C(C)C(O)C(C)C(=O)C(C)C(O)C(C)C=CC(=O)OC2C(C)C(CC1)OC1(OC(CC(C)O)C(C)CC1=O)C2CC (stereo not drawn) [NK86-0279]
T/C (percentage prolongation of life) ([1]; 0.063 mg/kg intraperitoneally once a day for 9 days): 136%
T/C (percentage prolongation of life) ([1]; 0.125 mg/kg intraperitoneally once a day for 9 days): 130%
T/C (percentage prolongation of life) ([1]; 0.250 mg/kg intraperitoneally once a day for 9 days): 153%
T/C (percentage prolongation of life) ([1]; 0.500 mg/kg intraperitoneally once a day for 9 days): 143%
inhibition at 0.000128 µg/mL ([2]; 0.000128 µg/ml, read-out: Groth-inhibitory ratio): 35.4%
inhibition at 0.00064 µg/mL ([2]; 0.00064 µg/ml, read-out: Groth-inhibitory ratio): 63.2%
inhibition at 0.0032 µg/mL ([2]; 0.0032 µg/ml, read-out: Groth-inhibitory ratio): 78.4%
inhibition at 0.016 µg/mL ([2]; 0.016 µg/ml, read-out: Groth-inhibitory ratio): 89.7%
IC50 ([2]; endothelial cells, read-out: IC₅₀): 0.0003 µg/mL (≈ 0.000366 µM)
MIC (Rhizopus hangchao): 6.25 µg/mL (≈ 7.63 µM)
MIC (Candida albicans): > 100 µg/mL
MIC (Botrytis cinerea): 12.5 µg/mL (≈ 15.3 µM)
MIC (Penicillium chrysogenum): 1.56 µg/mL (≈ 1.9 µM)
MIC [3]: 6.25 µg/mL (≈ 7.63 µM)
MIC (Saccharomyces cerevisiae): > 100 µg/mL
MIC (Mucor javanicus): > 100 µg/mL
MIC (Torula herbarum): 3.13 µg/mL (≈ 3.82 µM)
MIC (Aspergillus oryzae): 3.13 µg/mL (≈ 3.82 µM)
MIC (Glomerella cingulata): 6.25 µg/mL (≈ 7.63 µM)
MIC (Fusarium roseum f. sp.): 6.25 µg/mL (≈ 7.63 µM)
MIC (Aspergillus niger): 6.25 µg/mL (≈ 7.63 µM)
IC50 ([4]; human pulmonary cancer cells (PC-3), three days after the addition, read-out: IC₅₀): 2.13 µg/mL (≈ 2.6 µM)
inhibition at 0.024 µg/mL ([4]; Homo sapiens, PC-3, 0.024 µg/ml, read-out: Growth-inhibitory ratio): 25.1%
inhibition at 0.061 µg/mL ([4]; Homo sapiens, PC-3, 0.061 µg/ml, read-out: Growth-inhibitory ratio): 12%
inhibition at 0.098 µg/mL ([4]; Homo sapiens, PC-3, 0.098 µg/ml, read-out: Growth-inhibitory ratio): 28.1%
inhibition at 0.39 µg/mL ([4]; Homo sapiens, PC-3, 0.39 µg/ml, read-out: Growth-inhibitory ratio): 28%
inhibition at 1.56 µg/mL ([4]; Homo sapiens, PC-3, 1.56 µg/ml, read-out: Growth-inhibitory ratio): 38.1%
inhibition at 6.25 µg/mL ([4]; Homo sapiens, PC-3, 6.25 µg/ml, read-out: Growth-inhibitory ratio): 85.9%
inhibition at 25 µg/mL ([4]; Homo sapiens, PC-3, 25 µg/ml, read-out: Growth-inhibitory ratio): 99.3%
inhibition at 100 µg/mL ([4]; Homo sapiens, PC-3, 100 µg/ml, read-out: Growth-inhibitory ratio): 97.2%
IC50 (HeLa S₃ cells; HeLa S₃ cells, read-out: IC₅₀): 0.0027 µg/mL (≈ 0.0033 µM)
inhibition at 0.00064 µg/mL (HeLa S₃ cells; HeLa, 0.00064 µg/ml, read-out: Growth-inhibitory ratio): 22.9%
inhibition at 0.0032 µg/mL (HeLa S₃ cells; HeLa, 0.0032 µg/ml, read-out: Growth-inhibitory ratio): 53.5%
inhibition at 0.016 µg/mL (HeLa S₃ cells; HeLa, 0.016 µg/ml, read-out: Growth-inhibitory ratio): 61.2%
inhibition at 0.08 µg/mL (HeLa S₃ cells; HeLa, 0.08 µg/ml, read-out: Growth-inhibitory ratio): 73.5%
inhibition at 0.4 µg/mL (HeLa S₃ cells; HeLa, 0.4 µg/ml, read-out: Growth-inhibitory ratio): 81.2%
